Laboratory results reported in patent US20260207759A1, “COMPOSITION OF CD40-BINDING MOLECULE AND PHARMACEUTICAL USE THEREOF” (SUZHOU SUNCADIA BIOPHARMACEUTICALS CO., LTD., priority 2022, published 2026).

Legend:
[1] = tested on: human CD40 transgenic mice; assay: Mouse skin graft rejection model (anti-CD40-ADC); format: in vivo; conditions: 10 mpk ip, budesonide 0.12 mg/kg QD, dexamethasone 20 mpk QD
Text: Male Balb/c mice, 6 weeks old, were purchased from the Laboratory Animal Management Department, Shanghai Institute of Planned Parenthood Research.
(§1) On day −2 of the experiment, the mice were intraperitoneally injected with the CD40 antagonistic antibody, anti-CD40-ADC, or glucocorticoid. On day 0 of the experiment, donor Balb/c mice and C57BL6/J mice were anesthetized with 4% chloral hydrate. The tails of the donor mice were removed, and full circles of skin, 1 cm in length, were isolated from the tails. The hair on the acceptor mice's back was removed, and an incision was made along the skin layer. An equal area of skin was removed while preserving the back fat and connective tissue. The donor skin was placed on the acceptor mice's incision site, and the incision was closed with glue. The mice were then placed back in cages to recover.
The mice were dosed according to the administration regimens in Table 27. After 7 days of recovery, the mouse skin survival was observed daily and rejection scores were recorded.

[2] = tested on: human CD40 transgenic mice; assay: Mouse skin graft rejection model (antibodies, tacrolimus combination); format: in vivo; conditions: FK506 3 mpk, alone or combined
Text: Male Balb/c mice, 6 weeks old, were purchased from the Laboratory Animal Management Department, Shanghai Institute of Planned Parenthood Research. Housing environment: SPF; certification number: 20180006023393.
as §1, with “On day-2” for “On day −2”, “with tacrolimus FK506 or” for “with the”, “antagonistic antibodies.” for “antagonistic antibody, anti-CD40-ADC, or glucocorticoid.”
The mice were dosed according to the administration regimens in Table 16. After 7 days of recovery, the mouse skin survival was observed daily and rejection scores were recorded.

Row | Structure (SMILES) | Skin graft survival rate (%), 10 days [1] [%] | Skin graft survival rate (%), 15 days [1] [%] | Skin graft survival rate (%), 20 days [1] [%] | Skin graft score, 10 days ([1]; score 3 to 0) | Skin graft score, 15 days ([1]; score 3 to 0) | Skin graft score, 20 days ([1]; score 3 to 0) | Day-15 skin graft survival rate (%) ([2]; Table 20: antibody 10 mpk) | Skin graft score, 8 days ([2]; Table 22: 2F12-L4H2 10 mpk) | Skin graft score, 10 days ([2]; Table 22: 2F12-L4H2 10 mpk) | Skin graft score, 15 days ([2]; Table 22: 2F12-L4H2 10 mpk) | Skin graft score, 20 days ([2]; Table 22: 2F12-L4H2 10 mpk)
1 | C[C@@H]1C[C@H]2[C@@H]3CCC4=CC(=O)C=C[C@]4(C)[C@@]3(F)[C@@H](O)C[C@]2(C)[C@@]1(O)C(=O)CO [Dexamethasone] | 88.9 | 88.9 | 66.7 | 2.33 | 2 | 1.56 | – | – | – | – | –
2 | C=CC[C@@H]1/C=C(\C)C[C@H](C)C[C@H](OC)[C@H]2O[C@@](O)(C(=O)C(=O)N3CCCC[C@H]3C(=O)O[C@H](/C(C)=C/[C@@H]3CC[C@@H](O)[C@H](OC)C3)[C@H](C)[C@@H](O)CC1=O)[C@H](C)C[C@@H]2OC [FK506, tacrolimus] | – | – | – | – | – | – | 16.7 | 2.5 | 1.5 | 0.5 | 0
